Peptide text beside a SMILES is read from it.
Experiments:
[1] = test system: noncancer HDMEC primary cells (human dermal microvascular endothelial cells); experiment: Cell viability assay (MTT); type: cell-based; conditions: Table S2; noncancer primary cells; MTT, 24 h; mean ± sd; N = 2 independent measurements with six technical replicates each (Figs S6-S8)
Procedure: (§1) 10% fetal bovine serum and 1% penicillin-streptomycin (Thermo Fisher Scientific, Waltham, MA, USA). The cultures were kept at 37°C in a 5% CO2 atmosphere incubator (Thermo Fisher Scientific, Waltham, MA, USA) and split every two to three days to new culture flasks. Cells no older than 20 passages were used for experiments.
(§2) For splitting, the cell culture media was aspirated, the cells were washed with 0.01 M phosphate buffered saline (PBS, Gibco, Thermo Fisher Scientific, Waltham, MA, USA) and trypsin-EDTA (trypsin - ethylene diamine tetraacetic acid, Fisher scientific, UK) was added to the cell layer to detach them from the flask surface. After incubation for 2 min at 37°C, cells were resuspended with an equal volume of DMEM media and centrifuged at 310 g for 5 min at 4°C. After removal of the supernatant the cells were resuspended in DMEM cell media and split into new cell culture flasks at a 1/3 to 1/5 ratio.
(§3) Determination of the anticancer peptides half effective concentration (EC50) was performed by a 3-(4,5-dimethylthiazol-2-yl)-2,5-diphenyltetrazolium bromide (MTT) assay, as described elsewhere21. Briefly, […] were seeded in each well of a 96-well plate and left to adhere and […]
(§4) sulfoxide (DMSO, Fisher Scientific, UK) at an intermediate concentration of 1 mM. The peptides were then diluted in a 2-fold dilution series starting at 100 μM with DMEM culture media. Cells were incubated with the peptide solutions for 24 h. After this time, the cell media was removed and the cells were incubated for 1 h with a 0.5 mg mL−1 MTT solution to allow enough time for formazan crystal formation (Sigma Aldrich, Steinheim, Germany). The supernatant was removed and 100 μL of DMSO were added into each well to resuspend the formazan crystals.
(§5) After manually shaking the plates to completely dissolve the crystals, the absorbance was measured at 540 nm in a Tecan Infinity M1000 spectrophotometer. The cell viability was determined based on the quantification of the color intensity in each culture well, considering the absorbance obtained by the control media without peptides as a 100% survival. The resultant sigmoidal curves were analyzed with the drc22 R package using a log-logistic model

[2] = test system: MCF7 breast adenocarcinoma cell line; experiment: Cell viability assay (MTT); type: cell-based, human; conditions: Table S2, 24 h, mean ± sd, N = 2 independent measurements with six technical replicates each (Figs S6-S8)
Procedure: as §1, §2, §3, §4, §5

[3] = test system: A549 lung adenocarcinoma cell line; experiment: Cell viability assay (MTT); type: cell-based, human; conditions: Table S2; MTT, 24 h; mean ± sd; N = 2 independent measurements with six technical replicates each (Figs S6-S8); read-out: A549 EC50 /µM
Procedure: as §1, §2, §3, §4, §5

human erythrocytes = experiment: Hemolysis assay; type: cell-based; conditions: red cells of human, 1 h
Procedure: Human erythrocytes were freshly ordered at the Blutspende Zürich. Erythrocytes were washed 3 times with a […] phosphate buffered saline (PBS, Gibco, Thermo Fisher Scientific, Waltham, MA, USA) solution centrifuging at 800 g for 10 min or until the supernatant appeared clear to remove the blood plasma. A 5% v/v erythrocytes : PBS solution was prepared for direct use. For HC50 determination, peptides were dissolved in PBS at an intermediate concentration of 1 mM. A dilution series of the peptide from 200 to 6.25 μM was plated in a round-bottomed 96-well plate in triplicates, with a volume of 50 μL per well. PBS buffer and a solution of 0.1% Triton-X-100 (Fisher Chemical, Loughborough, UK) in PBS were employed as negative and positive controls, respectively. 50 μL of the 5% erythrocyte solution were added in each well and the plates were incubated at 37°C for 1 h. After this time, 100 μL PBS were added to each well and plates were centrifuged at 800 g for 10 min. 100 μL of the supernatant were transferred to a flat-bottomed 96-well plate and the absorbance was measured at 540 nm in a Tecan Infinity M1000 spectrophotometer plate reader. The hemolysis percentage was calculated, considering the absorbance values of the Triton and PBS wells as 100% and 0% hemolysis, respectively.
The resultant sigmoidal curves were analyzed with the drc22 R package using a log-logistic model with 3 fixed parameters to obtain the HC50 values. […]
NCI-60 screening procedure […]
Each peptide was tested in a 5-concentration assay, starting at 10^-4 M and diluting 10-fold to the lowest 10^-8 M concentration. The peptides were incubated for 48 h and the cell concentration was assayed by using the sulforhodamine B assay25 and optical density measurements. The growth inhibition (GI50) value24, measures the growth inhibitory power of the drug agent. The GI50 value is the concentration of the test drug for which the condition in Eq. S1 is met, where T is the optical density of the test well after a 48-h exposure to the peptide, T0 the optical density before applying the peptide drug and C the control optical density of a well where no peptide was applied.

| Structure (SMILES) | EC50 [1] | EC50 [2] | EC50 [3] | Eryhtr. HC50 /µM (human erythrocytes) |
| --- | --- | --- | --- | --- |
| CC[C@H](C)[C@H](NC(=O)[C@H](CC(C)C)NC(=O)[C@H](CCCCN)NC(=O)[C@H](Cc1ccccc1)NC(=O)[C@@H]1CCCN1C(=O)[C@H](CCCCN)NC(=O)[C@H](Cc1c[nH]cn1)NC(=O)[C@H](Cc1ccccc1)NC(=O)[C@H](Cc1c[nH]c2ccccc12)NC(=O)[C@@H](NC(=O)[C@H](CCCCN)NC(=O)[C@H](CC(C)C)NC(=O)[C@H](Cc1c[nH]cn1)NC(=O)[C@H](CCCNC(=N)N)NC(=O)[C@@H](NC(=O)[C@H](Cc1ccc(O)cc1)NC(=O)[C@@H](N)Cc1c[nH]cn1)[C@@H](C)CC)[C@@H](C)O)C(=O)NCC(=O)N[C@@H](CCCCN)C(=O)N[C@H](C(N)=O)C(C)C [Off2.4] (H-HYIRHLKTWFHKPFKLIGKV-NH2) | 169 ± 28 µM | > 100 µM | > 100 µM | > 200 µM |
| CC[C@H](C)[C@H](NC(=O)[C@H](CC(C)C)NC(=O)[C@@H](N)CCC(N)=O)C(=O)N[C@@H](CCCCN)C(=O)N[C@@H](CCCCN)C(=O)N[C@@H](CC(C)C)C(=O)N[C@@H](CCCNC(=N)N)C(=O)N[C@H](C(=O)N[C@@H](Cc1c[nH]c2ccccc12)C(=O)N[C@@H](Cc1ccc(O)cc1)C(=O)N[C@@H](CCCNC(=N)N)C(=O)N[C@@H](CCCCN)C(=O)N[C@@H](C)C(=O)N[C@@H](Cc1c[nH]c2ccccc12)C(=O)N[C@@H](Cc1c[nH]cn1)C(=O)N[C@H](C(=O)N[C@@H](CC(C)C)C(=O)NCC(=O)N[C@@H](CCCCN)C(=O)N[C@@H](CC(C)C)C(N)=O)C(C)C)[C@@H](C)O [Off2.2.6] (H-QLIKKLRTWYRKAWHVLGKL-NH2) | 9 ± 1 µM | 6.5 ± 0.2 µM | 10.6 ± 0.8 µM | > 200 µM |
| CC[C@H](C)[C@H](NC(=O)[C@H](CCCCN)NC(=O)CNC(=O)[C@@H](NC(=O)[C@H](Cc1ccc(O)cc1)NC(=O)[C@H](Cc1c[nH]cn1)NC(=O)[C@H](Cc1c[nH]c2ccccc12)NC(=O)[C@@H](NC(=O)[C@H](CCCCN)NC(=O)[C@H](CCCCN)NC(=O)[C@H](CC(C)C)NC(=O)[C@@H](NC(=O)[C@H](Cc1c[nH]cn1)NC(=O)[C@H](CCCNC(=N)N)NC(=O)[C@H](Cc1ccccc1)NC(=O)[C@H](CCCCN)NC(=O)[C@H](CCCCN)NC(=O)[C@H](Cc1ccc(O)cc1)NC(=O)[C@H](CC(C)C)NC(=O)[C@@H](N)CCCCN)[C@@H](C)CC)C(C)C)C(C)C)C(N)=O [Off3] (H-KLYKKFRHILKKVWHYVGKI-NH2) | 10 ± 3 µM | 10 ± 1 µM | 14 ± 3 µM | 29 ± 3 µM |
| CC[C@H](C)[C@H](NC(=O)[C@H](CC(C)C)NC(=O)[C@@H](N)Cc1c[nH]cn1)C(=O)N[C@@H](Cc1c[nH]cn1)C(=O)N[C@@H](CCCNC(=N)N)C(=O)N[C@@H](CC(C)C)C(=O)N[C@@H](Cc1c[nH]cn1)C(=O)N[C@H](C(=O)N[C@@H](Cc1ccc(O)cc1)C(=O)N[C@@H](Cc1c[nH]c2ccccc12)C(=O)N[C@@H](Cc1c[nH]cn1)C(=O)N[C@@H](CCCCN)C(=O)N1CCC[C@H]1C(=O)N[C@@H](Cc1c[nH]c2ccccc12)C(=O)N[C@@H](Cc1c[nH]cn1)C(=O)N[C@@H](Cc1ccc(O)cc1)C(=O)N[C@@H](CC(C)C)C(=O)NCC(=O)N[C@@H](CCCCN)C(=O)N[C@@H](CC(C)C)C(N)=O)[C@@H](C)O [Off2.9] (H-HLIHRLHTYWHKPWHYLGKL-NH2) | 135 ± 2 µM | > 100 µM | > 100 µM | > 200 µM |
| CC[C@H](C)[C@H](NC(=O)[C@@H](NC(=O)[C@H](Cc1c[nH]cn1)NC(=O)[C@H](Cc1ccccc1)NC(=O)[C@H](C)NC(=O)[C@H](CCCCN)NC(=O)[C@H](CCCNC(=N)N)NC(=O)[C@H](Cc1ccc(O)cc1)NC(=O)[C@H](Cc1c[nH]c2ccccc12)NC(=O)[C@@H](NC(=O)[C@H](CCCNC(=N)N)NC(=O)[C@@H](NC(=O)[C@H](CCCCN)NC(=O)[C@H](CCCCN)NC(=O)[C@H](CC(C)C)NC(=O)[C@@H](NC(=O)[C@@H](N)CCC(N)=O)C(C)C)C(C)C)[C@@H](C)O)C(C)C)C(=O)NCC(=O)N[C@@H](CCCCN)C(=O)N[C@H](C(N)=O)C(C)C [Off2.2.4] (H-QVLKKVRTWYRKAFHVIGKV-NH2) | > 100 µM | 68 ± 5 µM | > 100 µM | > 200 µM |
| CC[C@H](C)[C@H](NC(=O)[C@@H](N)CCC(N)=O)C(=O)N[C@@H](Cc1ccc(O)cc1)C(=O)N[C@@H](CCCCN)C(=O)N[C@@H](CCCCN)C(=O)N[C@@H](Cc1ccc(O)cc1)C(=O)N[C@@H](CCCNC(=N)N)C(=O)N[C@H](C(=O)N[C@@H](Cc1c[nH]c2ccccc12)C(=O)N[C@@H](Cc1ccc(O)cc1)C(=O)N[C@@H](CCCNC(=N)N)C(=O)N[C@@H](CCCCN)C(=O)N[C@@H](C)C(=O)N[C@@H](Cc1c[nH]c2ccccc12)C(=O)N[C@@H](CCCCN)C(=O)N[C@H](C(=O)N[C@@H](CC(C)C)C(=O)NCC(=O)N[C@@H](CCCCN)C(=O)N[C@H](C(N)=O)C(C)C)C(C)C)[C@@H](C)O [Off2.2.10] (H-QIYKKYRTWYRKAWKVLGKV-NH2) | 71 ± 12 µM | 16.9 ± 0.8 µM | 36 ± 7 µM | > 200 µM |
| CC[C@H](C)[C@H](NC(=O)[C@H](CCCCN)NC(=O)[C@@H]1CCCN1C(=O)[C@H](Cc1c[nH]c2ccccc12)NC(=O)[C@@H](NC(=O)[C@H](CCC(=O)O)NC(=O)[C@H](Cc1c[nH]c2ccccc12)NC(=O)[C@H](Cc1ccccc1)NC(=O)[C@H](CCCCN)NC(=O)[C@H](CCCCN)NC(=O)[C@@H](NC(=O)[C@@H](NC(=O)[C@@H](NC(=O)[C@H](CCCCN)NC(=O)[C@H](CC(C)C)NC(=O)[C@H](CCC(N)=O)NC(=O)[C@H](CCCNC(=N)N)NC(=O)[C@@H](NC(=O)[C@H](CCCNC(=N)N)NC(=O)[C@@H](N)Cc1c[nH]cn1)[C@@H](C)CC)[C@@H](C)O)[C@@H](C)O)[C@@H](C)CC)[C@@H](C)CC)C(N)=O [Off10] (H-HRIRQLKTTIKKFWEIWPKI-NH2) | 58.1 ± 0.3 µM | 56 ± 5 µM | 83 ± 11 µM | > 200 µM |
| CC(C)C[C@H](NC(=O)[C@H](CCCCN)NC(=O)CNC(=O)[C@H](Cc1ccccc1)NC(=O)[C@H](CC(C)C)NC(=O)[C@H](CCC(=O)O)NC(=O)[C@H](Cc1c[nH]c2ccccc12)NC(=O)[C@@H]1CCCN1C(=O)[C@H](CCCNC(=N)N)NC(=O)[C@H](CCCNC(=N)N)NC(=O)[C@H](Cc1ccc(O)cc1)NC(=O)[C@H](Cc1ccccc1)NC(=O)[C@@H]1CCCN1C(=O)[C@H](CCCNC(=N)N)NC(=O)[C@H](Cc1ccccc1)NC(=O)[C@H](CCCCN)NC(=O)[C@H](CCCCN)NC(=O)[C@H](Cc1ccccc1)NC(=O)[C@@H](NC(=O)[C@@H](N)CCC(N)=O)C(C)C)C(N)=O [Off2.1] (H-QVFKKFRPFYRRPWELFGKL-NH2) | 173 ± 1 µM | 91 ± 2 µM | > 100 µM | > 200 µM |
